From patent US11629329B2, “Bioink compositions and methods of preparing and using the same” (Wake Forest University Health Sciences, priority 2017, dated 2023)

How the values were obtained:
[1] = tested on: HCT116; test: Short term 5-FU drug study on organoids (MTS, live/dead ratio); assay type: cell-based; conditions: drug treated organoids vs control
Method: Three bioink formulations (“HA-collagen bioink”) were prepared and the viscoelastic behavior as well as cellular behavior within the material was quantified. The HA-collagen bioinks were formulated in three concentrations: 1:2, 1:3, and 1:4 (Heprasil® from Hystem-HP kit: methacrylated collagen type-1 from Advanced Biomatrix). Collagen was prepared as instructed by Advanced Biomatrix at 6 mg/mL and Heprasil® was prepared to 1% w/v with 0.1% photointiator in DiH2O and warmed to 37° C. Bioink formulations underwent rheological, cell viability, and 3D bioprinting testing conducted on the BioBots 1 device. As a comparison, tests were performed using the a Hystem-HP kit (thiolated hyaluronic acid and gelatin) made with 0.1% photointiator in DiH2O. Rheology was performed to determine shear elastic moduli G′ and 3D bioprinting was utilized to test printability of each material. Organoids were formed in 10 μL drops of bioink with […] per organoid, containing BXP3C, HCT116, Lx2, or pfHSC cell lines. Live/dead staining and picrosirus red collagen bundling analysis was performed on Lx2 and pfHSC organoids to assess viability and micro-architecture formation. A short term 5-Fluorouracil (5-FU) drug study was also conducted on HCT116 to show drug efficacy invariance between the Hystem-HP kit and 1:3 formulated bioink. […]

[2] = tested on: liver organoids; test: Acetyl-para-aminophenol toxicity and NAC rescue in liver organoids (live/dead, albumin, alpha-GST); assay type: cell-based, human
Method: Drugs were dissolved in HCM media to reach the desired concentrations. […] Viability of the liver organoids was assessed using live/dead assay on day 14; albumin and alpha GST production were quantified from media collected on days 4, 7, 10, and 14, as described above.

[3] = tested on: liver organoids; test: Recalled drug study on liver organoids (Cell-Titer Glo viability, live/dead); assay type: cell-based, human; conditions: for EC50: Homo sapiens, liver organoids, 48 hours, read-out: half-maximal effective concentration (EC50), analysis of cell death
Method: (§1) Cryopreserved primary human hepatocytes were thawed according to manufacturer's protocol and the cells were directly used in experiments. LX2 hepatic stellate cells were trypsinized with 0.05% of trypsin (Hyclone) and counted. Forty thousand human hepatocytes and ten thousand LX2 hepatic stellate cells were suspended in 10 μl of formulation collagen gel (collagen, hyaluronic acid, and fibronectin) or without fibronectin for the formation of liver organoids. The organoids were engineered in an identical method to cell line organoid formation described above, except 24-well plates (Corning) were employed. The wells were filled with 2 mL of HCM media (Triangle Research Labs), which was replenished after collecting media aliquots for further analysis on day 4, 7 and 10 of the experiment. The organoids were cultured for 14 days.
The hepatoxic drugs bromfenac sodium, troglitazone and tienilic acid, recalled by the FDA, were chosen for this study.^12, 32 All the compounds were purchased from Sigma-Aldrich. Drugs were dissolved in DMSO (dimethyl sulfoxide) for stock concentrations of 100 mM. Concentrations of 1 μM, 10 μm, 100 μM, and 1000 μM were used for bromfenac sodium and tienilic acid. Concentrations of 1 μm, 10 μM, and 100 μM were used for troglitazone. The drug study was conducted for 48 hours in a 24 well plate at 37° C. with 5% CO2; each well in the plate containing one liver organoid in a 2 mL of media (control) or media with drug dissolved at the concentrations mentioned above (n≥6). The response of the liver organoids was assessed using Cell-Titer Glo Luminescent Cell Viability assay (Promega) prepared according to manufacturer's protocol. The results were quantified using the Veritas Microplate Luminometer setup according to manufacturer's instructions (Turner Bio Systems, Promega). Each condition was also subjected to live/dead staining (Thermo Fisher). Stained organoids were imaged using macro-confocal microscopy (Leica TCS LSI, Leica Microsystems).

[4] = tested on: liver organoids; test: cells; assay type: cell-based, human; conditions: 48 hours; for EC50: liver organoids, read-out: half-maximal effective concentration (EC50), analysis of cell death
Method: as §1
The environmental toxins glyphosate, mercury chloride, and lead chloride were purchased from Sigma-Aldrich. Drugs were dissolved in diH2O for stock concentrations of 50 mM (glyphosate), 10 mM (mercury chloride), and 20 mM (lead chloride). Concentrations of 1 mM, 5 mM, 10 mM, and 20 mM were used for glyphosate. Concentrations of 10 μM, 20 μM, 50 μM, and 100 μM were used for mercury chloride. Concentrations of 1 mM, 2 mM, 5 mM, and 10 mM were used for lead chloride. The drug study was conducted for 48 hours (n=7) and liver organoids were assessed for viability with ATP assay and live/dead assay as described above.

[5] = tested on: LX2 hepatic stellate cells; test: Morphology of cells in HA-Collagen bioink with covalently bound laminin or fibronectin; assay type: cell-based; conditions: 7 days, phalloidin and DAPI
Method: LX2 hepatic stellate cells were cultured within collagen or a HA-Collagen bioink with covalently bound laminin, fibronectin, or both. After 7 days, the constructs were fixed and stained with phalloidin to highlight the actin cytoskeleton of the cells and DAPI for nuclei. What is evident is that modulating laminin versus fibronectin changes the morphology and phenotype of the cells within the constructs. While not wishing to be bound to any particular theory, these changes are likely due to activation of different integrin receptors responsible for binding to collagen, laminin, and fibronectin cell adhesion motifs.

[6] = tested on: HepG2 cells; test: Cancer organoid proliferation and viability in gel formulations, HepG2; assay type: cell-based, human; conditions: days 4, 7, 10
Method: The cells were trypsinized with 0.05% of trypsin (Hyclone) and counted. […] We chose this cell density for cancer organoid formation based on the results obtained from 3D organoid research performed in our lab.^31 The gel- cell mixture was pipetted in a well of a 48-well plate (Corning, N.Y.) that was pre-coated with 200 μl of polydimethylsiloxane (PDMS; Sylgard 184 elastomer kit, Dow Corning, Midland, Mich.) prepared according to manufacturer's protocol. The organoids were then crosslinked with UV light (Dymax BlueWave 75, Torrington, Conn.) on a high-intensity setting for 3 seconds. The wells were filled with 500 μL of media, which was replenished on day 4 and day 7 of the experiment. The organoids were maintained in culture for 10 days.
Biocompatibility of the different gel formulations was assessed in human cancer cell and liver organoids on days 4, 7, and 10 (n=3) using a standard live/dead cell viability kit (Thermo Fisher, Waltham, Mass.) according to the manufacturer's recommendation. […] Proliferation of cells within the different organoids was evaluated on days 4, 7, and 10 (n=3) by quantification of mitochondrial metabolism with a CellTiter 96® Aqueous One Solution Cell Proliferation Assay kit (Promega, Madison, Wis.) according to the manufacturer's protocol. Absorbance was quantified on a Spectramax M5 plate reader (Molecular Devices, Sunnyvale, Calif.) at 490 nm.

[7] = tested on: pfHSCs; test: Cell adhesion and spreading behavior in bioink organoids with fibronectin; assay type: cell-based; conditions: 16 μg per 10 μL construct
Method: Immobilization of fibronectin in the bioink was then verified by assessing cell adhesion and spreading behavior with pfHSCs. Fibronectin (16 μg per 10 μL construct) was added to collagen which was used to make organoids using the bioink with pfHSCs (3 million cells/mL). On days 1, 4, 7, and 10, organoids were removed from culture, fixed, and stained with phalloidin and DAPI.

[8] = tested on: liver organoids; test: Liver organoids with and without fibronectin (live/dead, albumin, urea); assay type: cell-based
Method: as §1
Cell viability was determined by live/dead assays (Thermo Fisher) on day 7 and 14 using representative images and by quantification of biomarkers from media collected on days 4, 7, 10, and 14 (n=3): Alpha-Glutathione s-transferase (alpha-GST) is secreted by liver cells upon cell death. The secreted levels of alpha-GST by the organoids are quantified using a GST alpha assay kit (GS41, Oxford Biomedical Research; Rochester Hills, Mich.). Absorbance was read on a Spectramax M5 plate reader (Molecular Devices) at 450 nm for alpha-GST.
The secreted levels of albumin and urea of the liver organoids were quantified from media collected on days 4, 7, 10, and 14 (n=3) using a Human Albumin ELISA Kit (Abeam; Boston, Mass. ab108788) and Urea Assay Kit (Abcam, ab83362), respectively. Absorbance was read on a Spectramax M5 plate reader (Molecular Devices) at 450 nm for albumin and at 430 nm for urea.

[9] = organoids containing fibronectin vs without

In the case of O=c1[nH]cc(F)c(=O)[nH]1 [5-FU, 5-Fluorouracil], the “metabolism, MTS assay” value [1] is reported as “lower metabolism” and the “ratio of dead cells” value [1] is reported as “larger ratio of dead cells”.
For CC(=O)N[C@@H](CS)C(=O)O [NAC, N-Acetyl-L-cysteine], the “cell viability of liver organoids exposed to high-concentration APAP” value ([2]; 10 mM APAP with 20 mM NAC) was “markedly improved cell viability”, the albumin production ([2]; APAP 10 mM co-incubated with NAC 20 mM, day 14) was “partially rescued albumin production” and the alpha-GST production ([2]; APAP 10 mM with NAC 20 mM, by day 14) was “noticeable decrease approaching control levels”.
Nc1c(CC(=O)O)cccc1C(=O)c1ccc(Br)cc1 [bromfenac sodium] was tested, and the EC50 [3] was 371 µM and the “cell death, live/dead analysis” value ([3]; at 1000 μM) was “near to complete cell death”.
In the case of O=C(O)CNCP(=O)(O)O [glyphosate], the EC50 ([4]; Homo sapiens) is reported as 4100 µM and the “cell death, live/dead analysis” value ([4]; at 20 mM) is reported as “near to complete cell death”.
With [Cl][Pb][Cl] [lead chloride] the EC50 [4] was 970 µM.
For [Cl][Hg][Cl] [mercury chloride], the EC50 [4] was 28.2 µM.
Compound O=C(O)COc1ccc(C(=O)c2cccs2)c(Cl)c1Cl [tienilic acid] has an EC50 [3] of 491 µM.
Cc1c(C)c2c(c(C)c1O)CCC(C)(COc1ccc(CC3SC(=O)NC3=O)cc1)O2 (centres unmarked) [troglitazone] gave an EC50 [3] of 6.9 µM.
With fibronectin the “morphology and phenotype of the cells” value [5] was “mesenchymal”, the “proliferation of encapsulated cells in the organoids” value [6] was “facilitated the proliferation” and the “cell elongation behavior earlier than in conditions without fibronectin” value [7] was 3 days. For the same compound, the production of albumin [8, 9] was “significantly greater”, the production of urea [8, 9] was “significantly greater” and the “cell viability, live/dead analysis” value ([8]; with vs without fibronectin, 14 days) was “comparable cell viability”.
In the case of laminin, the “morphology and phenotype of the cells” value [5] is reported as “epithelial nature”.
